Laboratory results: patent publication US20250381165A1, “Method of Use for Benzofuran Compounds” (Tampa Bay Research Institute, Inc., priority 2024, published 2025)
Read-outs that look alike come from different tables or passages of the source.

Tests used:
Format in all cases: cell-based, murine
[1] = test system: DC2.4 cells (B3Z activation); experiment: Pathway inhibitor studies in DC2.4/B3Z assay
Experimental: […]. The cytotoxicity of all inhibitors was assessed using CellTiter96 Aqueous One (Promega (Madison WI, USA); cat. no. G3580).
. The cells were then washed 2× before addition of BzFβ. Cells exposed to the other inhibitors were incubated with an appropriate concentration of each inhibitor, seen in Table 1 in cDMEM at 37° C., 5% CO2. […]. Cells were then incubated for 6 h. Before B3Z addition the inhibitor and BzFβ were removed, and the cells washed with warm DPBS. If testing peptide presentation, the DC2.4 cells were pulsed with 0.5 nM […] for 1 h prior to being cocultured with B3Z.

[2] = test system: DC2.4 cells presenting SIINFEKL to B3Z CD8+ T cell hybridoma; experiment: B3Z activation by SIINFEKL-pulsed DC2.4 (CPRG β-gal assay); settings: doses up to 50 μg/mL (265 μM), 0.5 nM SIINFEKL
Experimental: DC2.4 cells (2.5×10^4 cells/well) were seeded at 100 μL/well in 96 well tissue culture white sided/white bottom plate and incubated overnight to allow for cell adherence. 37° C. in an atmosphere containing 5% CO2 and 95% humidity. Following pre-treatment of the DC2.4 cells (1-24 h) with escalating doses of the test molecules, the cells were washed, pulsed with 0.5 nM of the MHC class I H-2Kb peptide, SIINFEKL, for 1 h, and then co-cultured with the CD8+ T cell hybridoma, B3Z.
The level of B3Z cell activation and the effects of the various test molecules on B3Z activation were quantified in cell lysates using the β-gal chromogenic substrate, CPRG. The media was removed and 100 μL of 250 μM CPRG reconstituted in the lysis buffer (1×DPBS, 0.2% v/v saponin, 20 mM magnesium chloride) was added directly to each well. Cells were maintained at 37° C. prior to measurement. The absorbance at 560 nm (700 nm for background) was intermittently monitored using a BioTek Synergy HTX multimode microplate reader (Winooski, VT) to detect β-gal activity. CPRG lysis buffer and B3Z cells only served as the negative controls. All treatments were performed in triplicate and all experiments were repeated a minimum of three times.
Activation of B3Z T cell hybridoma cells was assessed following their exposure to various MHC class I H-2K^b positive cell lines presenting the SIINFEKL peptide. B3Z are a CD8+ SIINFEKL peptide specific T-cell hybridoma expressing a beta-galactosidase (β-gal) reporter gene driven by NF-AT elements on the interleukin 2 (IL-2) promoter. […] Activation of B3Z leads to production of β-gal whose presence can be quantified using the optimized detection assay described by Jendresen et al. (Jendresen, et al., An improved CPRG colorimetric ligand-receptor signal transduction assay based on beta-galactosidase activity in mammalian BWZ-reporter cells. J Pharmacol Toxicol Methods. 2018 March-April; 90:67-75).
To stimulate β-gal production in the B3Z, the H-2Kb murine cell lines, DC2.4, B16F10, and E.G7-OVA, or freshly isolated murine splenocytes, were plated at a density of 2.5 or 5×10^4 cells/well (100 μL/well in 96 well plates) and cultured overnight at 37° C. in an atmosphere containing 5% CO2 and 95% humidity. The cells were washed with DPBS and then treated for 1-24 h with the indicated concentrations of BzFβ suspended in complete media. Vehicle controls were always included. […]
To detect activation of the B3Z cells, the media was removed and 100 μL of 250 µM CPRG reconstituted in the lysis buffer (1×DPBS, 0.2% v/v saponin, 20 mM magnesium chloride) was added directly to each well. […] The absorbance at 560 nm (700 nm for background) was intermittently monitored using a BioTek Synergy HTX multimode microplate reader (Winooski, VT) to detect β-gal activity. […]

[3] = test system: MHC class I H-2Kb on DC2.4; experiment: MHC class I recovery after acid stripping of DC2.4; settings: 25 μg/mL BzFβ or 5 mM GL during recovery, 4-24 h
Experimental: To determine if BzFβ affects synthesis or cycling of the MHC class I molecules, the class I molecule/peptide complexes were stripped from the surface of DC2.4 cells using a citric acid buffer, then treated with 25 μg/mL BzFβ, 5 mM of the dipeptide GL, or 3 μg/mL BFA (see Example 4) as a negative control.
An acid wash to strip the cell surface of MHC class I was performed as described with modifications. (Montealegre, et al., Dissociation of β2-microglobulin determines the surface quality control of major histocompatibility complex class I molecules. FASEB. 2015 July; 29(7):2780-8). DC2.4 were incubated overnight at 37° C. at 1×10^5. Cells were washed for 2 min in acidic buffer [(pH 2.5) 465 mM Citric acid, 35 mM sodium citrate, in PBS with 1% v/v FBS] or neutral buffer [(pH 7.4) PBS with 1% v/v FBS]. Afterwards the pH was neutralized by the addition of cDMEM. The cells were washed with PBS and treated with BzFβ or GL in cDMEM for various times to allow for MHC class I recovery at 37° C. Cells were washed and stained with an H-2Kb-specific antibody (Invitrogen, cat. no. 12-5958-82) and analyzed by flow cytometry as described previously
MHC I recovery on the cell surface at various time points was detected by flow cytometry using the PE-labeled MHC class I H-2Kb specific antibody (AF6-88.5.5.3). […] At 6 hours >60% of the MHC class I molecules recovered, seen in FIG. 14.

[4] = molecular target: T1, H-2Kb/SIINFEKL complex on DC2.4 (Mus musculus, UniProt P01901); experiment: BFA decay experiment (SIINFEKL off-rate) on DC2.4; settings: 24 h pre-treatment, 1 h 30 nM SIINFEKL
T1 construct: DC2.4 are a C57Bl/6 lineage murine cell line and as such they express MHC class I H-2Kb and H-2Db; endogenous in cells; host or cells: DC2.4 (murine dendritic cell line, from Dr. Kenneth Rock)

[5] = molecular target: T2, MHCI/SIINFEKL complex on DC2.4 (Mus musculus, UniProt P01901); experiment: Displacement of SIINFEKL from DC2.4 after peptide pulse
T2 construct: DC2.4 are a C57Bl/6 lineage murine cell line and as such they express MHC class I H-2Kb and H-2Db; endogenous in cells; host or cells: DC2.4 (murine dendritic cell line, from Dr. Kenneth Rock)
T2 sequence (P01901 22-369): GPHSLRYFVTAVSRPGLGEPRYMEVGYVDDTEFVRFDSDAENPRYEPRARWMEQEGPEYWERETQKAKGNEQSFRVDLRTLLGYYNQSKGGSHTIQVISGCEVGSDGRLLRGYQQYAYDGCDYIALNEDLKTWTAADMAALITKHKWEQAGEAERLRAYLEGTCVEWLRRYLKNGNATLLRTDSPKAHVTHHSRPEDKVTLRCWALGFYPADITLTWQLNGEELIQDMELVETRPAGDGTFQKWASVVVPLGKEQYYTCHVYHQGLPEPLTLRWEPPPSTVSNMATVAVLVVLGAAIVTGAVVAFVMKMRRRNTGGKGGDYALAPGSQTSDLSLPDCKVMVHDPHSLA
T2 sequence (P01887 21-119 partner): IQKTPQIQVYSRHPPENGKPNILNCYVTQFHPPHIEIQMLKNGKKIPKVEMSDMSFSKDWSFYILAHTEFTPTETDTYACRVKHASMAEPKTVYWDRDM

[6] = test system: B16F10 cells (B3Z activation); experiment: B3Z activation by B16F10 (OVA or SIINFEKL)
Experimental: B16F10 were plated at a density of 2.5 or 5×10^4 cells/well (100 μL/well in 96 well plates) and cultured overnight in cDMEM. The cells were washed with DPBS and then treated for 1-24 h with the indicated concentrations of BzFβ or co-treated with the indicated concentrations of BzFβ and 1.0 mg/mL OVA, suspended in complete media. Cells treated with BzFβ only were pulsed with 2 nM SIINFEKL pulsed for 1 h. The cells were then co-cultured with equal number of B3Z cells at 37° C. for 19 h.
In this experiment the activity of the dipeptide, GL, was also examined, as it has been previously reported to function as a peptide exchange factor. (Saini, et al., Dipeptides catalyze rapid peptide exchange on MHC class I molecules. Proc Natl Acad Sci USA. 2015 Jan. 6; 112(1):202-7; Saini, et al., Empty peptide-receptive MHC class I molecules for efficient detection of antigen-specific T cells. Sci Immunol. 2019 Jul. 19; 4(37):eaau9039). B16F10 were plated at a density of 2.5 or 5×10^4 cells/well (100 μL/well in 96 well plates) and cultured overnight in cDMEM. The cells were washed with DPBS and then co-treated for 24 h with 10 mM (1.88 mg/mL) of GL and 1.0 mg/mL OVA or were pulsed with 2 nM SIINFEKL for 1 h following treatment with 10 mM GL in complete media. The cells were then co-cultured with an equal number of B3Z cells at 37° C. for 19 h.

[7] = DC2.4 pulsed with […], data not shown
[8] = DC2.4 pulsed with SIINFEKL, data not shown

Q: With `C=C1[C@@H](C)[C@H]2[C@H](Cc3ccccc3)NC(=O)[C@]23[C@H](OC(C)=O)/C=C/[C@@](C)(O)C(=O)[C@@H](C)C/C=C/[C@H]3[C@@H]1O` [cytochalasin D, Cytochalasin D] as the compound, how does the “inhibition of BzFβ enhancement of B3Z activation” value (shortened to “inhibition”) [1, 7] read?
A: Its value is “failed to inhibit”.

Q: `CO/C1=C\C(C)=C\[C@@H](C)[C@@H](O)[C@@H](C)C/C(C)=C/C=C/[C@H](OC)[C@@H]([C@@H](C)[C@@H](O)[C@H](C)[C@@]2(O)C[C@@H](O)[C@H](C)[C@@H](C(C)C)O2)OC1=O` [Bafilomycin A1] was tested. Which “inhibition” value [1, 7] did it give?
A: Its value is “failed to inhibit”.

Q: With `O=C(O)C=Cc1ccc2c(c1)CCO2` [molecule #2, 3-(2,3-dihydro-1-benzofuran-5-yl)acrylic acid] as the compound, how does the “B3Z activation by analog-treated DC2.4” value [2] read?
A: The value was “failed to evoke activation of the B3Z response”.

Q: For `C[C@H]1CCC/C=C/[C@@H]2C[C@H](O)C[C@H]2[C@H](O)/C=C/C(=O)O1` [BFA, Brefeldin A], which “effect of BFA on B3Z activation with OVA as antigen source” value ([1]; DC2.4, 3 μg/mL BFA 1 h pretreatment, 0.5 mg/mL OVA) is on record?
A: Its value is “significantly suppressed”.

Q: `C[C@@H]1C[C@@H]([C@H](O)CC2CC(=O)NC(=O)C2)C(=O)[C@@H](C)C1` [cycloheximide, Cycloheximide] was tested. Which “inhibition” value [1, 7] did it give?
A: Its value is “failed to inhibit”.

Q: Which “inhibition” value [1, 8] does the source give for `Cn1cnc(N)c2ncnc1-2` [3-methyladenine, 3-Methyladenine] here?
A: The value was “failed to inhibit”.

Q: How did the “MHC class I recovery after acid stripping” value [3] turn out when `CC(C)CC(NC(=O)CN)C(=O)O` (stereo not drawn) [GL, Glycine-leucine dipeptide, reference compound] was run?
A: The value was “no increase in MHC class I production”.

Q: What about the “decay rate of SIINFEKL / stability of H-2Kb/SIINFEKL complex” value [4] of the same compound?
A: Its value is “no increase in overall stability”.

Q: And the “MHCI/SIINFEKL complex staining versus untreated cells” value ([5]; 5 mM GL after 1 h pulse 30 nM SIINFEKL, p=0.0027)?
A: Its value is “significantly reduced”.

Q: And the “concentration of dipeptides required relative to BzFβ” value ([5]; displace or enhance peptide binding)?
A: Its value is 3 fold.

Q: What about the “B3Z activation by B16F10, OVA” value ([6]; co-treatment with 1 mg/mL OVA, GL at 10 mM) of the same compound?
A: Its value is “no effect on the uptake or processing of OVA”.

Q: What about the “B3Z activation by B16F10, SIINFEKL” value ([6]; pre-treatment, 1 h pulse 2 nM SIINFEKL, BzFβ 25, 50 μg, GL 10 mM) of the same compound?
A: The value was “significantly enhance B3Z activation”.

Q: For `CCN(CC)CCCC(C)Nc1ccnc2cc(Cl)ccc12` (stereo not drawn) [chloroquine, Chloroquine], which “inhibition” value [1] is on record?
A: Its value is “failed to inhibit”.

Q: For `COc1cccc2c1C(=O)c1c(O)c3c(c(O)c1C2=O)C[C@@](O)(C(=O)CO)C[C@@H]3O[C@H]1C[C@H](N)[C@H](O)[C@H](C)O1` [doxorubicin, Doxorubicin], which “inhibition” value [1, 8] is on record?
A: The value was “failed to inhibit”.

Q: Which “B3Z activation by analog-treated DC2.4” value [2] does the source give for `O=C(O)/C=C/c1ccc2c(c1)OCO2` [molecule #4, (2E)-3-(1,3-benzodioxol-5yl)acrylic acid] here?
A: The value was “failed to evoke activation of the B3Z response”.
